Laboratory results from patent US20250228835A1, “PYRIDINYLOXYPYRIDINES AND RELATED COMPOUNDS AND THEIR USE IN TREATING MEDICAL CONDITIONS” (Rectify Pharmaceuticals, Inc., priority 2024, published 2025).

What was measured:
[1] = molecular target: T1, ABCB4 WT (Homo sapiens, UniProt P21439); assay: ABCB4 WT assay: HiBit protein expression; format: cell-based; conditions: HEK-293 cells stably expressing HiBit-tagged ABCB4 WT; 24 h treatment; top concentration 30 μM; read-out: ABCB4 WT EC50, Emax
T1 construct: expressed in transfected cells
Excerpt: To assess activity against ABCB4, compounds were screened in an assay measuring protein expression, using cells transfected with cDNA encoding HiBit-tagged ABCB4 wild-type.
(§1) Described here is an assay for measuring the expression of the wild type of human ABCB4 (henceforth referred to as ABCB4 WT) and the use of this assay to measure the efficacy of compounds to increase the expression of ABCB4 WT. The assay was designed to characterize the efficacy and potency of compounds to increase the expression of ABCB4 WT by calculating an Emax and EC50 value. HEK-293 cells stably expressing ABCB4 WT (HEK-293/ABCB4 WT) were used for this assay and were maintained at 37° C. (5% CO2, humidified) in Dulbecco's Modified Eagle Medium (DMEM, Gibco product #12100) supplemented with 10% fetal bovine serum (Biosera product #FB-1058/500), 1% PenStrep (HDB product #15140-122), and 0.5 mg/mL puromycin (Gibco product #A11138-03). For the assay, the HEK-293/ABCB4 WT cells were seeded in white/opaque 384-well plates (Corning product #3570) at 10,000 cells/well in 20 μl growth medium and allowed to settle for 4 hours at 37° C. (5% CO2, humidified). Compound serial dilutions are prepared in DMSO as three hundred times (333×) the final concentration and using a dilution factor of 3 using Bravo (Agilent). After the four-hour incubation period, 60 nL of DMSO solutions are transferred to the assay plate.
(§2) Dose response curves include eleven doses with the top final concentration at 30 μM in 0.3% DMSO. Liquid handling is performed with ECHO 550 Acoustic Liquid Handler (Labcyte). After addition of compound treatment, cells are incubated for 24 hours at 37° C. (5% CO2, humidified). After the 24-hour treatment, plates are allowed to equilibrate to room temperature for 10 minutes. Using Dragonfly Automated Liquid Handler (TTP LabTech), 20 μl of HiBit lytic assay reagent (Promega, product #N3040), which is prepared according to manufacturer's instructions, is added to each well. The plates are rotated at room temperature for 2 minutes and incubated for 1 hour at 25° C. before luminescent signal is acquired using an EnVision Multimode Plate Reader (PerkinElmer).
Results are presented below in Table 5 for ABCB4 WT.

[2] = molecular target: T2, ABCD2 WT (Homo sapiens, UniProt Q9UBJ2); assay: D2 correction dose-response assay: ABCD2 WT HiBit protein expression; format: cell-based; conditions: HEK-293/ABCD2 WT cells, 24 hours treatment, HiBit luminescence; class combines EC50 and Mean MaxAct (fold); read-out: ABCD2 WT EC50, Emax
T2 construct: expressed in transfected cells
T2 sequence (Q9UBJ2 1-740): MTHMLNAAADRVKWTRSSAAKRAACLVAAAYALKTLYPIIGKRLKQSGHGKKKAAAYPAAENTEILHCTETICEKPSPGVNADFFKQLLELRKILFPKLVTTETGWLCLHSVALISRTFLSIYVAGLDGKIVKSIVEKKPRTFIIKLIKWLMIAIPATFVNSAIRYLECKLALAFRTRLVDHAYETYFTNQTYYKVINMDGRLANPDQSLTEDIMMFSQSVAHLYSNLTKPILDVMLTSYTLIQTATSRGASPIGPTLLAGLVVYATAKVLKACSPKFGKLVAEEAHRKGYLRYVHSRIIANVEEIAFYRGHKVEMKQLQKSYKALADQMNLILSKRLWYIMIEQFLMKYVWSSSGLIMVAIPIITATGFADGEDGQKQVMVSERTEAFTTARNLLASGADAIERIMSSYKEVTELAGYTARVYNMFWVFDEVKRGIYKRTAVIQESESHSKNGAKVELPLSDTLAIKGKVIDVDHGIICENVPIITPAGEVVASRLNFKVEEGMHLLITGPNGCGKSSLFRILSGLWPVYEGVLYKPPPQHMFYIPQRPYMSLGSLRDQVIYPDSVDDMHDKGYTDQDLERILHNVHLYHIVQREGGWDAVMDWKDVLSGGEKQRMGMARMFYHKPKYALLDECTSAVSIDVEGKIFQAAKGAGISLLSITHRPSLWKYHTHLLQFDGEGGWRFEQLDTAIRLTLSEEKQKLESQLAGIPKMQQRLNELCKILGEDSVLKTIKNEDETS
Procedure: Exemplary compounds were evaluated in a D2 correction dose-response assay.
as §1, with “To assess activity against ABCD2, the compounds were screened in an assay measuring protein expression, using cells transfected with cDNA encoding HiBit-tagged ABCD2 wild-type. Here we describe” for “Described here is”, “ABCD2” for “ABCB4”, “(HEK-293/ABCD2” for “(HEK-293/ABCB4”, “HEK-293/ABCD2” for “HEK-293/ABCB4”
as §2

T1 sequence (P21439 whole entry): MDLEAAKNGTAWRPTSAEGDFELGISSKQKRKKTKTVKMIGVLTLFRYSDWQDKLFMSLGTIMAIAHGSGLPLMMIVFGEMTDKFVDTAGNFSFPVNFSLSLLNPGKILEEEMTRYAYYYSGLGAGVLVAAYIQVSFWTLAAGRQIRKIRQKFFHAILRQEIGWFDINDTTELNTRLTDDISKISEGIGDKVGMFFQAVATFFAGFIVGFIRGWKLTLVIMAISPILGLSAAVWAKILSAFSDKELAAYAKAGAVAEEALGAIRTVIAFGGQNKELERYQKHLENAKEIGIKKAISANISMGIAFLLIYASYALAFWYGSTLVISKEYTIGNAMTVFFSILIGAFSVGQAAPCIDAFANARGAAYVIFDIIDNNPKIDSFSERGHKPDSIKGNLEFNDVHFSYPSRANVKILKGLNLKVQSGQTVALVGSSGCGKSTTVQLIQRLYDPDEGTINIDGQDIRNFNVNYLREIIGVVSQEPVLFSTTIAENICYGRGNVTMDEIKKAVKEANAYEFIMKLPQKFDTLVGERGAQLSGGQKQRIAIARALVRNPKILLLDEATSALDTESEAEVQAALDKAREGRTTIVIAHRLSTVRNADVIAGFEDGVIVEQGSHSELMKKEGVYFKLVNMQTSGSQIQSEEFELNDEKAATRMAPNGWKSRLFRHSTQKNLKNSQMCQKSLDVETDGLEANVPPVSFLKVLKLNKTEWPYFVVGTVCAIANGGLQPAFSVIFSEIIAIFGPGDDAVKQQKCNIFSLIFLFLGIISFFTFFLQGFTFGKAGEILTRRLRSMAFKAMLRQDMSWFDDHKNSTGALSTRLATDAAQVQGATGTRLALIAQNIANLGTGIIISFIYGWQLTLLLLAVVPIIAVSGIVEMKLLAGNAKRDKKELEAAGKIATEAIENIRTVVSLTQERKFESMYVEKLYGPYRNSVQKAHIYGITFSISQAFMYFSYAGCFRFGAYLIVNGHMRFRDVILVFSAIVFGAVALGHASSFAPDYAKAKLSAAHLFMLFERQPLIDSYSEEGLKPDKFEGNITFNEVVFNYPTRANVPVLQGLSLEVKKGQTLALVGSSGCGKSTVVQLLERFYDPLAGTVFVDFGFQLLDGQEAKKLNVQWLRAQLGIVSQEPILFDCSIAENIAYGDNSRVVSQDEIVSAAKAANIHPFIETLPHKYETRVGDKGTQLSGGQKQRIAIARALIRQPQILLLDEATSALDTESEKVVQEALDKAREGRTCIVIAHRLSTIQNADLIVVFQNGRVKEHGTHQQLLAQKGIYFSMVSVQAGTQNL

Row | EC50 [1] [µM] | EC50 [2] [µM] | SMILES
1 | < 1 | 1 to 10 | Cc1cc(C(F)F)nc(C2CC2)c1Oc1nc(-c2cncc(C#N)c2)ccc1N(C)S(=O)(=O)C1CC1 [Compound I-134]
2 | < 1 | < 1 | Cc1cc(C(F)(F)F)nc(C2CC2)c1Oc1nc(-c2cncc(C#N)c2)ccc1NS(=O)(=O)C(C)C [Compound I-141]
3 | < 25 | > 25 | Cc1nc(C(F)(F)F)cc(C2CC2)c1Oc1nc(-c2cncc(C#N)c2)ccc1N(C)S(C)(=O)=O [Compound I-154]
4 | < 1 | < 1 | CCS(=O)(=O)N(C)c1ccc(-c2cncc(C#N)c2)nc1Oc1c(C)cc(C(F)(F)F)nc1C1CC1 [Compound I-148]
5 | < 1 | < 1 | Cc1sc(C2CC2)nc1Oc1nc(-c2cncc(C#N)c2)ccc1NS(C)(=O)=O [Compound I-299]
6 | < 1 | > 25 | Cc1nc(C(F)(F)F)cc(C2CC2)c1Oc1nc(-c2cncc(C#N)c2)ccc1NS(C)(=O)=O [Compound I-155]
7 | < 1 | < 1 | CCS(=O)(=O)Nc1ccc(-c2cncc(C#N)c2)nc1Oc1c(C)cc(C(F)(F)F)nc1C1CC1 [Compound I-152]
8 | < 1 | < 1 | CS(=O)(=O)Nc1ccc(-c2cncc(C#N)c2)nc1Oc1c(C2CC2)nc(C(F)(F)F)nc1C1CC1 [Compound I-138]
9 | < 1 | > 25 | Cc1nc(C(F)F)nc(C2CC2)c1Oc1nc(-c2cncc(C#N)c2)ccc1NS(C)(=O)=O [Compound I-144]
10 | 10 to 25 | 1 to 10 | CNS(=O)(=O)c1ccc(-c2cncc(C#N)c2)nc1Oc1c(C)cc(C(F)F)nc1C1CC1 [Compound I-289]
11 | 1 to 10 | > 25 | Cc1cc(C)c(Oc2nc(-c3cncc(Cl)c3)ccc2S(C)(=O)=O)c(C)c1 [Compound I-104]
12 | 1 to 10 | > 25 | Cc1nc(C(F)F)nc(C2CC2)c1Oc1nc(-c2cncc(C#N)c2)ccc1S(=O)(=O)NC1CC1 [Compound I-314]
13 | 1 to 10 | < 1 | Cc1cc(C(F)(F)F)nc(C2CC2)c1Oc1nc(-c2cncc(C#N)c2)ccc1S(=O)(=O)NC1CC1 [Compound I-133]
14 | < 1 | < 1 | Cc1cc(C(F)(F)F)nc(C2CC2)c1Oc1nc(-c2cncc(C#N)c2)ccc1NS(C)(=O)=O [Compound I-163]
15 | < 1 | < 1 | Cc1cc(C2CC2)nc(C)c1Oc1nc(-c2cncc(C#N)c2)ccc1NS(C)(=O)=O [Compound I-4]
16 | 1 to 10 | > 25 | CNS(=O)(=O)c1ccc(-c2cncc(C#N)c2)nc1Oc1c(C)nc(C(F)F)nc1C1CC1 [Compound I-313]
17 | 1 to 10 | 1 to 10 | Cc1cc(C(F)F)nc(C2CC2)c1Oc1nc(-c2cncc(C#N)c2)ccc1S(=O)(=O)NC1CC1 [Compound I-288]
18 | ≥ 25 | > 25 | Cc1cc(C(F)(F)F)nc(C2CC2)c1Oc1nc(-c2cncc(C#N)c2)ccc1S(=O)(=O)N1CCOCC1 [Compound I-290]
19 | < 1 | 1 to 10 | Cc1cc(C(F)F)nc(C2CC2)c1Oc1nc(-c2cncc(C#N)c2)ccc1N(C)S(C)(=O)=O [Compound I-135]
20 | ≥ 25 | > 25 | Cc1cc(C)c(Oc2nc(-c3cncc(Cl)c3)ccc2S(=O)(=O)NC(C)(C)C)c(C)c1 [Compound I-99]
21 | < 25 | > 25 | Cc1cc(C(F)(F)F)nc(C2CC2)c1Oc1nc(-c2cncc(C#N)c2)ccc1S(=N)(=O)C1CC1 (stereo not drawn) [Compound I-287]
22 | ≥ 25 | > 25 | Cc1nc(C(F)(F)F)nc(C2CC2)c1Oc1nc(-c2cncc(Cl)c2)ccc1N(C)S(C)(=O)=O [Compound I-149]
23 | 10 to 25 | 10 to 25 | Cc1cc(C(F)(F)F)nc(C2CC2)c1Oc1nc(-c2cncc(C#N)c2)ccc1S(=N)(=O)c1ccccn1 (stereo not drawn) [Compound I-302]
24 | < 25 | > 25 | CNS(=O)(=O)c1ccc(-c2cncc(C#N)c2)nc1Oc1nc(C2CC2)sc1C [Compound I-308]
